Assay type in all cases: functional
What all share (settings): for zone of inhibition at 100 µg/mL: read-out: DIZ

One assay deals with Bacillus subtilis. The assay is described as follows: Antibacterial activity against Bacillus subtilis at 100 ug/ml after 24 hrs.
For another assay, the system named is Muscodor albus. The assay is described as follows: Antibacterial activity against Muscodor albus at 100 ug/ml after 24 hrs.
The test system of a further assay is Proteus vulgaris. As to the kind of experiment: Antibacterial activity against Proteus vulgaris at 100 ug/ml after 24 hrs.
A further assay deals with Escherichia coli. As to the kind of experiment: Antibacterial activity against Escherichia coli at 100 ug/ml after 24 hrs.

The source made the active and inactive calls. No cut-off for these calls is given here.

Data on 20 compounds can be found in ChEMBL document CHEMBL2429819, “Synthesis, antibacterial screening, and POM analyses of novel bis-isoxazolyl/pyrazolyl-1,3-diols” (2013).

For the compound `Cc1ccc(C(=O)CC(=O)c2cc(C(=O)CC(=O)c3ccc(C)cc3)c(O)cc2O)cc1`, the zone of inhibition at 100 µg/mL was 16.2 mm with Bacillus subtilis, 13.1 mm in the assay on Muscodor albus, 12.6 mm in the assay with Proteus vulgaris and 13.8 mm in the assay on Escherichia coli.

`O=C(CC(=O)c1cc(C(=O)CC(=O)c2ccc(Cl)cc2)c(O)cc1O)c1ccc(Cl)cc1`: the values for the zone of inhibition at 100 µg/mL in the assay on Bacillus subtilis, in the assay with Muscodor albus and with Proteus vulgaris were 13.2 mm, 15 mm and 11 mm, respectively. Besides, the “diameter of the inhibition zone (DIZ)” value in the assay on Escherichia coli is “inactive”.

Regarding `O=C(CC(=O)c1cc(C(=O)CC(=O)c2ccccc2)c(O)cc1O)c1ccccc1`, the zone of inhibition at 100 µg/mL with Bacillus subtilis was 15.8 mm; in the assay on Muscodor albus it was 15.2 mm; with Proteus vulgaris, 13.3 mm; with Escherichia coli, 12.4 mm.

`Oc1cc(O)c(-c2cc(-c3cccs3)[nH]n2)cc1-c1cc(-c2cccs2)[nH]n1`: the “diameter of the inhibition zone (DIZ)” value in the assay on Bacillus subtilis is “inactive”. The zone of inhibition at 100 µg/mL with Muscodor albus amounted to 11.7 mm; in the assay on Proteus vulgaris it was 15.3 mm; with Escherichia coli, 15.4 mm.

Consider `Oc1cc(O)c(-c2cc(-c3ccc(Cl)cc3)[nH]n2)cc1-c1cc(-c2ccc(Cl)cc2)[nH]n1`, for which the zone of inhibition at 100 µg/mL turned out to be 16.2 mm in the assay on Bacillus subtilis, 15.7 mm in the assay on Muscodor albus, 15.7 mm in the assay on Proteus vulgaris and 15 mm with Escherichia coli.

In the case of `COc1ccc(C(=O)CC(=O)c2cc(C(=O)CC(=O)c3ccc(OC)cc3)c(O)cc2O)cc1`, the zone of inhibition at 100 µg/mL with Bacillus subtilis was 14.9 mm; in the assay on Muscodor albus, 16.1 mm; in the assay on Escherichia coli it was 11.4 mm. In the assay on Proteus vulgaris, the “diameter of the inhibition zone (DIZ)” value was “inactive”.

As for `Cc1ccc(-c2cc(-c3cc(-c4cc(-c5ccc(C)cc5)[nH]n4)c(O)cc3O)n[nH]2)cc1`, the figures for the zone of inhibition at 100 µg/mL with Bacillus subtilis, in the assay on Proteus vulgaris and in the assay on Escherichia coli were 12.4 mm, 15.7 mm and 14.7 mm, respectively. Also, in the assay with Muscodor albus, the “diameter of the inhibition zone (DIZ)” value is “inactive”.

Turning to `O=C(CC(=O)c1cc(C(=O)CC(=O)c2cccs2)c(O)cc1O)c1cccs1`, the zone of inhibition at 100 µg/mL with Bacillus subtilis amounted to 15.5 mm; in the assay with Muscodor albus it was 14.9 mm; in the assay with Proteus vulgaris it was 14.9 mm; in the assay with Escherichia coli it was 15.5 mm.

With `Oc1cc(O)c(-c2cc(-c3cccnc3)on2)cc1-c1cc(-c2cccnc2)on1`, the zone of inhibition at 100 µg/mL with Bacillus subtilis amounted to 15.8 mm; in the assay with Muscodor albus it was 16.1 mm; with Proteus vulgaris, 11.9 mm; with Escherichia coli, 12.4 mm.

In the case of `COc1ccc(-c2cc(-c3cc(-c4cc(-c5ccc(OC)cc5)[nH]n4)c(O)cc3O)n[nH]2)cc1`, the zone of inhibition at 100 µg/mL in the assay with Bacillus subtilis turned out to be 15.5 mm; in the assay with Muscodor albus it was 14.4 mm; with Escherichia coli it was 12.1 mm. Further, the “diameter of the inhibition zone (DIZ)” value with Proteus vulgaris is “inactive”.

For the compound `Oc1cc(O)c(-c2cc(-c3cccs3)on2)cc1-c1cc(-c2cccs2)on1`, the values for the zone of inhibition at 100 µg/mL with Bacillus subtilis, in the assay on Muscodor albus and in the assay with Escherichia coli were 13.2 mm, 16 mm and 12.5 mm, respectively. Besides, the “diameter of the inhibition zone (DIZ)” value in the assay with Proteus vulgaris is “inactive”.

With `NC[C@@H]1O[C@H](O[C@H]2[C@@H](O)[C@H](O[C@@H]3[C@@H](O)[C@H](N)C[C@H](N)[C@H]3O[C@H]3O[C@H](CN)[C@@H](O)[C@H](O)[C@H]3N)O[C@@H]2CO)[C@H](N)[C@@H](O)[C@@H]1O` [FRAMYCETIN], the zone of inhibition at 100 µg/mL with Bacillus subtilis turned out to be 26.1 mm; in the assay with Muscodor albus it was 25.8 mm; in the assay with Proteus vulgaris it was 25.3 mm; with Escherichia coli, 26.1 mm.

In the case of `Cc1ccc(-c2cc(-c3cc(-c4cc(-c5ccc(C)cc5)on4)c(O)cc3O)no2)cc1`, the zone of inhibition at 100 µg/mL is 12.7 mm in the assay on Bacillus subtilis, 14.7 mm with Muscodor albus and 11.4 mm in the assay with Proteus vulgaris. The “diameter of the inhibition zone (DIZ)” value in the assay on Escherichia coli is “inactive”.

On to `Oc1cc(O)c(-c2cc(-c3ccccc3)[nH]n2)cc1-c1cc(-c2ccccc2)[nH]n1`, for which the zone of inhibition at 100 µg/mL is 12.2 mm with Bacillus subtilis, 14 mm with Muscodor albus, 15.2 mm in the assay on Proteus vulgaris and 15.2 mm in the assay with Escherichia coli.

As for `Oc1cc(O)c(-c2cc(-c3ccccc3)on2)cc1-c1cc(-c2ccccc2)on1`, the zone of inhibition at 100 µg/mL in the assay on Bacillus subtilis came to 11.2 mm; in the assay on Proteus vulgaris, 15.2 mm; with Escherichia coli, 17 mm. Also, the “diameter of the inhibition zone (DIZ)” value in the assay on Muscodor albus was “inactive”.

Consider `COc1ccc(-c2cc(-c3cc(-c4cc(-c5ccc(OC)cc5)on4)c(O)cc3O)no2)cc1`, for which the zone of inhibition at 100 µg/mL with Bacillus subtilis was found to be 16.5 mm; in the assay with Muscodor albus, 15.9 mm; in the assay with Proteus vulgaris, 15.4 mm; in the assay with Escherichia coli, 14.3 mm.

As to `Oc1cc(O)c(-c2cc(-c3cccnc3)[nH]n2)cc1-c1cc(-c2cccnc2)[nH]n1`, the zone of inhibition at 100 µg/mL was determined as 14.2 mm in the assay with Bacillus subtilis, 15.3 mm in the assay with Muscodor albus, 15.4 mm in the assay on Proteus vulgaris and 15.2 mm in the assay on Escherichia coli.

Turning to `Oc1cc(O)c(-c2cc(-c3ccc(Cl)cc3)on2)cc1-c1cc(-c2ccc(Cl)cc2)on1`, the zone of inhibition at 100 µg/mL in the assay with Bacillus subtilis came out at 13.7 mm; in the assay with Muscodor albus, 15 mm; in the assay on Proteus vulgaris, 13.2 mm; with Escherichia coli, 12.7 mm.

Turning to `CC[C@H]1OC(=O)[C@H](C)[C@@H](O[C@H]2C[C@@](C)(OC)[C@@H](O)[C@H](C)O2)[C@H](C)[C@@H](O[C@@H]2O[C@H](C)C[C@H](N(C)C)[C@H]2O)[C@](C)(O)C[C@@H](C)C(=O)[C@H](C)[C@@H](O)[C@]1(C)O` [ERYTHROMYCIN], the zone of inhibition at 100 µg/mL in the assay with Bacillus subtilis came out at 27.1 mm; in the assay on Muscodor albus, 26.1 mm; in the assay on Proteus vulgaris it was 25.1 mm; in the assay on Escherichia coli, 27.4 mm.

Turning to `O=C(CC(=O)c1cc(C(=O)CC(=O)c2cccnc2)c(O)cc1O)c1cccnc1`, the zone of inhibition at 100 µg/mL in the assay on Bacillus subtilis worked out at 11.9 mm; with Muscodor albus, 15.7 mm; in the assay on Proteus vulgaris it was 14.2 mm; in the assay with Escherichia coli it was 16.4 mm.
